{"source": "patent US7157083B2", "about": "“Compositions and methods for treating retroviral infections” (priority 1998, dated 2007)", "test_system": "IIIB (HIV IIIB virus)", "assay": "Study 4 sensitization, Turpin and standard macrophages: RT activity after IIIB challenge", "format": "cell-based", "procedure": "Percent virus control (% VC) in the following tables is the mean RT activity (cpm) as a percentage of a virus control. Percent cell control (% CC) is the mean XTT absorbance as a percentage of a cell control.\nReverse transcriptase (RT) activity was measured in cell-free supernatants. Tritiated thymidine triphosphate (NEN) (TTP) was resuspended in distilled H2O at […]. Poly rA and oligo dT were prepared as a stock solution which was kept at −20° C. The RT reaction buffer was prepared fresh on a daily basis and consists of 125 μL 1.0 M EGTA, 125 μL d H2O, 110 μL 10% SDS, 50 μL 1.0 M Tris (pH 7.4), 50 μL 1.0 M DTT, and 40μ1.0 M MgCl2. These three solutions were mixed together in a ratio of 2 parts TTP, 1 part poly rA:oligo dT, and 1 part reaction buffer. Ten microliters of this reaction mixture was placed in a round bottom microtiter plate and 15 μL of virus containing supernatant was added and mixed. The plate was incubated at 37° C. in a water bath with a solid support to prevent submersion of the plate and incubated for 60 minutes. Following reaction, the reaction volume was spotted onto pieces of DE81 paper, washed 5 times for 5 minutes each in a 5% sodium phosphate buffer, 2 times for 1 minute each in distilled water, 2 times for 1 minute each in 70% ethanol, and then dried. Opti-Fluor O was added to each sample and incorporated radioactivity was quantitated utilizing a Wallace 1450 Microbetaplus liquid scintillation counter.\nThe macrophage plates were then washed with HBSS multiple times. Fresh mixed pha blast PBMCs (5×10e4/well) were placed on the macrophage cells, allowed to incubate for 72 hours and then harvested and reset in a fresh 96 well plate. The PBMCs were then challenged overnight with the respective virus (IIIB or Rojo) at a standard MOI for that virus. The PBMCs were 5× in plate spin washed with DPBS, incubated 24 hours, at which time 5×10e4 fresh pha blast PBMCs/well were added. The culture was incubated an additional 6 days and then assayed for RT activity.\nWhere viability corrections were conducted, they were performed by dividing the RT CPM value by the toxicity absorbance in order to compensate for well to well variations noted in the cell titer toxicity noted.", "data": [{"substance": "Hyaluronidase", "values": [{"measurement": "RT activity % VC", "setting": "0.195313 μg/mL, GP120IIIB Sensitized, Turpin", "result": 108.1, "unit": "%"}, {"measurement": "RT activity % VC", "setting": "0.195313 μg/mL, IIIB Sensitized, Standard", "result": 178.1, "unit": "%"}, {"measurement": "RT activity % VC", "setting": "0.195313 μg/mL, IIIB Sensitized, Turpin", "result": 95.8, "unit": "%"}, {"measurement": "RT activity % VC", "setting": "0.390625 μg/mL, GP120IIIB Sensitized, Standard", "result": 87.7, "unit": "%"}, {"measurement": "RT activity % VC", "setting": "0.390625 μg/mL, GP120IIIB Sensitized, Turpin", "result": 83.5, "unit": "%"}, {"measurement": "RT activity % VC", "setting": "0.390625 μg/mL, IIIB Sensitized, Standard", "result": 181.3, "unit": "%"}, {"measurement": "RT activity % VC", "setting": "0.78125 μg/mL, GP120IIIB Sensitized, Standard", "result": 94.5, "unit": "%"}, {"measurement": "RT activity % VC", "setting": "0.78125 μg/mL, GP120IIIB Sensitized, Turpin", "result": 105.6, "unit": "%"}, {"measurement": "RT activity % VC", "setting": "0.78125 μg/mL, IIIB Sensitized, Standard", "result": 129.9, "unit": "%"}, {"measurement": "RT activity % VC", "setting": "0.78125 μg/mL, IIIB Sensitized, Turpin", "result": 100.0, "unit": "%"}, {"measurement": "RT activity % VC", "setting": "1.5625 μg/mL, GP120IIIB Sensitized, Standard", "result": 100.7, "unit": "%"}, {"measurement": "RT activity % VC", "setting": "1.5625 μg/mL, GP120IIIB Sensitized, Turpin", "result": 58.0, "unit": "%"}, {"measurement": "RT activity % VC", "setting": "1.5625 μg/mL, IIIB Sensitized, Standard", "result": 203.0, "unit": "%"}, {"measurement": "RT activity % VC", "setting": "1.5625 μg/mL, IIIB Sensitized, Turpin", "result": 68.3, "unit": "%"}, {"measurement": "RT activity % VC", "setting": "3.125 μg/mL, GP120IIIB Sensitized, Standard", "result": 82.3, "unit": "%"}, {"measurement": "RT activity % VC", "setting": "3.125 μg/mL, GP120IIIB Sensitized, Turpin", "result": 71.2, "unit": "%"}, {"measurement": "RT activity % VC", "setting": "3.125 μg/mL, IIIB Sensitized, Standard", "result": 120.8, "unit": "%"}, {"measurement": "RT activity % VC", "setting": "6.25 μg/mL, GP120IIIB Sensitized, Standard", "result": 106.5, "unit": "%"}, {"measurement": "RT activity % VC", "setting": "6.25 μg/mL, GP120IIIB Sensitized, Turpin", "result": 72.2, "unit": "%"}, {"measurement": "RT activity % VC", "setting": "6.25 μg/mL, IIIB Sensitized, Standard", "result": 234.4, "unit": "%"}, {"measurement": "RT activity % VC", "setting": "6.25 μg/mL, IIIB Sensitized, Turpin", "result": 70.0, "unit": "%"}, {"measurement": "RT activity % VC", "setting": "25 μg/mL, GP120IIIB Sensitized, Standard", "result": 70.6, "unit": "%"}, {"measurement": "RT activity % VC", "setting": "25 μg/mL, GP120IIIB Sensitized, Turpin", "result": 52.1, "unit": "%"}, {"measurement": "RT activity % VC", "setting": "25 μg/mL, IIIB Sensitized, Standard", "result": 99.8, "unit": "%"}, {"measurement": "RT activity % VC", "setting": "25 μg/mL, IIIB Sensitized, Turpin", "result": 23.6, "unit": "%"}, {"measurement": "RT activity % VC", "setting": "viability corrected, 0.097656 μg/mL, GP120IIIB Sensitized, Standard", "result": 105.6, "unit": "%"}, {"measurement": "RT activity % VC", "setting": "viability corrected, 0.097656 μg/mL, GP120IIIB Sensitized, Turpin", "result": 116.0, "unit": "%"}, {"measurement": "RT activity % VC", "setting": "viability corrected, 0.097656 μg/mL, IIIB Sensitized, Standard", "result": 103.7, "unit": "%"}, {"measurement": "RT activity % VC", "setting": "viability corrected, 0.097656 μg/mL, IIIB Sensitized, Turpin", "result": 95.3, "unit": "%"}, {"measurement": "RT activity % VC", "setting": "viability corrected, 0.195313 μg/mL, GP120IIIB Sensitized, Standard", "result": 83.8, "unit": "%"}, {"measurement": "RT activity % VC", "setting": "viability corrected, 0.195313 μg/mL, GP120IIIB Sensitized, Turpin", "result": 111.2, "unit": "%"}, {"measurement": "RT activity % VC", "setting": "viability corrected, 0.195313 μg/mL, IIIB Sensitized, Standard", "result": 141.1, "unit": "%"}, {"measurement": "RT activity % VC", "setting": "viability corrected, 0.195313 μg/mL, IIIB Sensitized, Turpin", "result": 110.9, "unit": "%"}, {"measurement": "RT activity % VC", "setting": "viability corrected, 0.390625 μg/mL, GP120IIIB Sensitized, Standard", "result": 74.2, "unit": "%"}, {"measurement": "RT activity % VC", "setting": "viability corrected, 0.390625 μg/mL, GP120IIIB Sensitized, Turpin", "result": 122.4, "unit": "%"}, {"measurement": "RT activity % VC", "setting": "viability corrected, 0.390625 μg/mL, IIIB Sensitized, Standard", "result": 177.8, "unit": "%"}, {"measurement": "RT activity % VC", "setting": "viability corrected, 0.390625 μg/mL, IIIB Sensitized, Turpin", "result": 98.3, "unit": "%"}, {"measurement": "RT activity % VC", "setting": "viability corrected, 0.78125 μg/mL, GP120IIIB Sensitized, Standard", "result": 100.5, "unit": "%"}, {"measurement": "RT activity % VC", "setting": "viability corrected, 0.78125 μg/mL, GP120IIIB Sensitized, Turpin", "result": 115.4, "unit": "%"}, {"measurement": "RT activity % VC", "setting": "viability corrected, 0.78125 μg/mL, IIIB Sensitized, Standard", "result": 117.6, "unit": "%"}, {"measurement": "RT activity % VC", "setting": "viability corrected, 0.78125 μg/mL, IIIB Sensitized, Turpin", "result": 95.5, "unit": "%"}, {"measurement": "RT activity % VC", "setting": "viability corrected, 1.5625 μg/mL, GP120IIIB Sensitized, Standard", "result": 97.2, "unit": "%"}, {"measurement": "RT activity % VC", "setting": "viability corrected, 1.5625 μg/mL, GP120IIIB Sensitized, Turpin", "result": 74.4, "unit": "%"}, {"measurement": "RT activity % VC", "setting": "viability corrected, 1.5625 μg/mL, IIIB Sensitized, Standard", "result": 189.1, "unit": "%"}, {"measurement": "RT activity % VC", "setting": "viability corrected, 1.5625 μg/mL, IIIB Sensitized, Turpin", "result": 79.6, "unit": "%"}, {"measurement": "RT activity % VC", "setting": "viability corrected, 3.125 μg/mL, GP120IIIB Sensitized, Standard", "result": 76.1, "unit": "%"}, {"measurement": "RT activity % VC", "setting": "viability corrected, 3.125 μg/mL, GP120IIIB Sensitized, Turpin", "result": 79.0, "unit": "%"}, {"measurement": "RT activity % VC", "setting": "viability corrected, 3.125 μg/mL, IIIB Sensitized, Standard", "result": 115.2, "unit": "%"}, {"measurement": "RT activity % VC", "setting": "viability corrected, 3.125 μg/mL, IIIB Sensitized, Turpin", "result": 106.2, "unit": "%"}, {"measurement": "RT activity % VC", "setting": "viability corrected, 6.25 μg/mL, GP120IIIB Sensitized, Standard", "result": 95.2, "unit": "%"}, {"measurement": "RT activity % VC", "setting": "viability corrected, 6.25 μg/mL, GP120IIIB Sensitized, Turpin", "result": 96.0, "unit": "%"}, {"measurement": "RT activity % VC", "setting": "viability corrected, 6.25 μg/mL, IIIB Sensitized, Standard", "result": 181.7, "unit": "%"}, {"measurement": "RT activity % VC", "setting": "viability corrected, 6.25 μg/mL, IIIB Sensitized, Turpin", "result": 63.4, "unit": "%"}, {"measurement": "RT activity % VC", "setting": "viability corrected, 25 μg/mL, GP120IIIB Sensitized, Standard", "result": 81.6, "unit": "%"}, {"measurement": "RT activity % VC", "setting": "viability corrected, 25 μg/mL, GP120IIIB Sensitized, Turpin", "result": 54.1, "unit": "%"}, {"measurement": "RT activity % VC", "setting": "viability corrected, 25 μg/mL, IIIB Sensitized, Standard", "result": 124.6, "unit": "%"}, {"measurement": "RT activity % VC", "setting": "viability corrected, 25 μg/mL, IIIB Sensitized, Turpin", "result": 26.6, "unit": "%"}]}]}
